# Laboratory results published in patent US20210205264A1, “USE OF DELTA-TOCOTRIENOL FOR TREATING CANCER” (H. LEE MOFFITT CANCER CENTER & RESEARCH INSTITUTE INC., priority 2018, published 2021).
# Key:
# human CCSCs = assay: Orthotopic (cecum) model of luciferase expressing human CCSCs in NOD-SCID mice; type: in vivo
# Experimental: FIGS. 8A, 8B, 8C, and 8D show growth of cecal tumor volume (FIGS. 8A & 8B) and liver metastasis score (FIGS. 8C & 8D) in orthotopic model of CCSCs after treatment with vehicle, aspirin, d-T3, and aspirin+d-T3.
# In vivo model of human CCSC were developed by implanting the stably transfected luciferase expressing CCSCs in the cecum of NOD-SCID mice. In this model, tumor growth, metastasis, and survival are monitored twice weekly by IP injection of luciferin (150 mg/kg body weight) and imaged using the IVIS 200 Bioluminescence imaging system. […] These findings strongly indicate that d-T3 targets CCSCs and enhances the ability of aspirin to target these cells.
# CCSCs = assay: Annexin V FITC/PI flow cytometry apoptosis assay in CCSCs; type: cell-based, human; settings: 24 hours; d-T3 50 μM, aspirin 5 mM
# Experimental: FIGS. 10A, 10B, 10C, and 10D show induction of apoptosis measured by flow cytometry (FIG. 10A) and confocal microscopy (FIG. 10B) in CCSCs after treatment with vehicle, aspirin, d-T3, and aspirin+d-T3. Effect of BID inhibitor on apoptosis in CCSCs after treatment with aspirin or d-T3 (FIG. 10C). Induction oft-BID in CCSCs after treatment with vehicle, aspirin, d-T3, and aspirin+d-T3 (FIG. 10D).
# d-T3 can induce selective killing of CCSCs through the BH3 interacting-domain death agonist (BID). […] It should be noted that these in vitro results are consistent with the in vivo observation of the selective induction of apoptosis in APC mutant colon crypt cells in the ApcMin/+ mice but not in the normal intestinal cells of the AOM rat CRC model or NOD/SCID mice. […] Although the proapoptotic activity of d-T3 is a consistent observation of d-T3 anticancer activity in all of the published reports, the mechanism by which d-T3 induces apoptosis is poorly understood. Apoptotic death is regulated by the death receptor (extrinsic) and mitochondrial (intrinsic) pathways. These 2 pathways crosstalk under certain conditions through caspase-8-mediated cleavage of BID, a BH3-only Bcl-2 family member. The activated and truncated BID (tBID) then engages the intrinsic pathway for efficient apoptosis induction. To obtain preliminary information regarding the mechanisms by which d-T3 induces apoptosis in CCSCs, the activation of BID was measured after 24-hour treatment with vehicle, aspirin (5 mM), d-T3 (50 μM), and aspirin combined with d-T3 in CCSCs by Western blotting.
# hCAS = molecular target: T1, hCAS (Homo sapiens, UniProt P55060); assay: Streptavidin bead capture of hCAS from treated MiaPaCa-2 cells; type: binding; settings: derived from biotinylated probes
# T1 construct: endogenous in cells; host or cells: MiaPaCa-2 human pancreatic cancer cells
# T1 sequence (P55060 1-971): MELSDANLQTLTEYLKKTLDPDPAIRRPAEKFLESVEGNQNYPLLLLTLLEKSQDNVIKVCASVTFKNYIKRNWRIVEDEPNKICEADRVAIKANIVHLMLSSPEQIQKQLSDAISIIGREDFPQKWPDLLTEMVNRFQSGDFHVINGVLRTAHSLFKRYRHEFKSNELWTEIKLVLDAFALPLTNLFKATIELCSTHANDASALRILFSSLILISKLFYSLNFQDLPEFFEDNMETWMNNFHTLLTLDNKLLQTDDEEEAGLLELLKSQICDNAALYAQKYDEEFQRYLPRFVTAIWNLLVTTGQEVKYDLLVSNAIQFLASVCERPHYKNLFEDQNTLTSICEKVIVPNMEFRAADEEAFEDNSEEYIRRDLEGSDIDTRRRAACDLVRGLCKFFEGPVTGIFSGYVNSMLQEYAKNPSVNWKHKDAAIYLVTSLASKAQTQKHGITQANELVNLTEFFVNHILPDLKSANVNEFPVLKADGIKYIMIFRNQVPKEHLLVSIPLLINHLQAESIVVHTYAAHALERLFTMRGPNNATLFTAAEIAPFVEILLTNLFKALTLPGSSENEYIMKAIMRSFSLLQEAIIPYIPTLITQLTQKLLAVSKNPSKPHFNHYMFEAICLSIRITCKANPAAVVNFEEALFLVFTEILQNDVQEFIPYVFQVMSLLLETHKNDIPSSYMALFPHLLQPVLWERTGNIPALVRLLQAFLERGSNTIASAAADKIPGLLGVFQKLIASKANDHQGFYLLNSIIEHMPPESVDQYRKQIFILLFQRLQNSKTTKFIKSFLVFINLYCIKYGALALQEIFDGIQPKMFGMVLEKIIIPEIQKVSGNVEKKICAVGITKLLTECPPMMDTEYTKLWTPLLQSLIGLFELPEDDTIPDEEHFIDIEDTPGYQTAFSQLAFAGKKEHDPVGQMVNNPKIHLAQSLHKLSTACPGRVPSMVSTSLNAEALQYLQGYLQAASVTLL
# Experimental: To confirm that δ-T3 binds to hCAS in intact cells, biotinylated δ-T3 (B-δ-T3) was prepared by chemically coupling the —OH group of δ-T3 to the —COOH of biotin using a PEG-iodoactamide linker (FIG. 18).
# MiaPaCa-2 human pancreatic cancer cells were treated for 24 hours with biotin alone (B), B-δ-T3 or B-TOCOPH. The cells were then lysed, and the lysates incubated with streptavidin beads, and the captured proteins processed for Western blotting.
compound,measurement,setting,value
"CC(C)=CCC/C(C)=C/CC/C(C)=C/CC[C@]1(C)CCc2cc(O)cc(C)c2O1 [d-T3, δ-tocotrienol]",growth of human CRC stem cells (cecal tumor),human CCSCs,inhibited
same,metastases of human CRC stem cells,human CCSCs; liver metastasis,inhibited
same,induction of apoptosis,CCSCs,much more effective than aspirin
same,binds hCAS in intact pancreatic cancer cells,hCAS,binds hCAS
